# From ChEMBL document CHEMBL1201862, “PubChem BioAssay data set” (2004)
#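 Protocol summary: plate cells (96-well), add compound at 5 concentrations, incubate 48 h, interpolate endpoints linearly. The concentration for 50% growth inhibition is given as GI50.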 Activity calls are given as the source filed them. Cut-off read from the data, not from the text of the source: active = GI50 up to about 1.1 µM and inactive = higher.
# Columns and labels:
# Test in all cases: NCI-60 cell line screen, 48 h
# RPMI-8226 = system: RPMI-8226
# SK-OV-3 = system: SK-OV-3
# HCT-15 = system: HCT-15
# OVCAR-8 = system: OVCAR-8
# U-251 = system: U-251
# TK-10 = system: TK-10
# HCC 2998 = system: HCC 2998
# K562 = system: K562
# EKVX = system: EKVX
# UO-31 = system: UO-31
# 786-0 = system: 786-0
# A498 = system: A498
# PC-3 = system: PC-3
# DU-145 = system: DU-145
# NCI/ADR-RES = system: NCI/ADR-RES
# LOX IMVI = system: LOX IMVI
# OVCAR-4 = system: OVCAR-4
# SK-MEL-2 = system: SK-MEL-2
# CAKI-1 = system: CAKI-1
# NCI-H522 = system: NCI-H522
SMILES,GI50 (RPMI-8226),GI50 (SK-OV-3),GI50 (HCT-15) [µM],GI50 (OVCAR-8),GI50 (U-251),GI50 (TK-10),GI50 (HCC 2998),GI50 (K562),GI50 (EKVX),GI50 (UO-31),GI50 (786-0),GI50 (A498),GI50 (PC-3),GI50 (DU-145),GI50 (NCI/ADR-RES),GI50 (LOX IMVI),GI50 (OVCAR-4),GI50 (SK-MEL-2),GI50 (CAKI-1),GI50 (NCI-H522)
Nn1nnc2ccccc21,> 100 µM (inactive),> 100 µM (inactive),> 100,> 100 µM (inactive),> 100 µM (inactive),> 100 µM (inactive),> 100 µM (inactive),> 100 µM (inactive),> 100 µM (inactive),> 100 µM (inactive),> 100 µM (inactive),> 100 µM (inactive),> 100 µM (inactive),> 100 µM (inactive),> 100 µM (inactive),> 100 µM (inactive),> 100 µM (inactive),–,–,–
Cc1ccccc1N/C(=C(/C(Cl)=C(Cl)Cl)[N+](=O)[O-])n1nnc2ccccc21,24.1 µM (inactive),15.3 µM (inactive),15.4,–,16.3 µM (inactive),–,18 µM (inactive),21.1 µM (inactive),20.5 µM (inactive),16.7 µM (inactive),34 µM (inactive),19.4 µM (inactive),22.1 µM (inactive),22.4 µM (inactive),18.2 µM (inactive),–,17.5 µM (inactive),10.8 µM (inactive),20.4 µM (inactive),–
CC1CN(C)c2ccccc2N=C1NN (stereo unspecified),> 100 µM (inactive),> 100 µM (inactive),> 100,> 100 µM (inactive),> 100 µM (inactive),> 100 µM (inactive),–,88.3 µM (inactive),> 100 µM (inactive),> 100 µM (inactive),> 100 µM (inactive),> 100 µM (inactive),> 100 µM (inactive),> 100 µM (inactive),> 100 µM (inactive),–,> 100 µM (inactive),> 100 µM (inactive),> 100 µM (inactive),> 100 µM (inactive)
CCN(CC)C(=O)Cn1c2ccccc2[n+]2cc(N)ccc12,> 100 µM (inactive),> 100 µM (inactive),> 100,> 100 µM (inactive),> 100 µM (inactive),> 100 µM (inactive),> 100 µM (inactive),> 100 µM (inactive),> 100 µM (inactive),> 100 µM (inactive),> 100 µM (inactive),> 100 µM (inactive),> 100 µM (inactive),> 100 µM (inactive),> 100 µM (inactive),> 100 µM (inactive),> 100 µM (inactive),> 100 µM (inactive),> 100 µM (inactive),–
COc1ccc2nc(/C(N)=C\C#N)ccc2c1,37.5 µM (inactive),–,> 100,36.8 µM (inactive),60.5 µM (inactive),59.2 µM (inactive),–,31.6 µM (inactive),0.15 µM (active),32.8 µM (inactive),34.7 µM (inactive),–,43.7 µM (inactive),92.5 µM (inactive),30.8 µM (inactive),36 µM (inactive),86.7 µM (inactive),49.5 µM (inactive),> 100 µM (inactive),37 µM (inactive)
Brc1ccc(/N=N/c2ccc3ccccc3n2)cc1,18.1 µM (inactive),22.9 µM (inactive),35.3,30.3 µM (inactive),16.7 µM (inactive),28 µM (inactive),–,–,17.6 µM (inactive),11.2 µM (inactive),14.2 µM (inactive),–,22 µM (inactive),> 100 µM (inactive),33.3 µM (inactive),–,–,> 100 µM (inactive),14.1 µM (inactive),0.0372 µM (active)
O=C(Nc1ccc(Cl)cc1)c1cc2c(cc1Cl)SC(NNCCO)=NS2(=O)=O,> 100 µM (inactive),> 100 µM (inactive),> 100,> 100 µM (inactive),> 100 µM (inactive),> 100 µM (inactive),> 100 µM (inactive),27.9 µM (inactive),> 100 µM (inactive),> 100 µM (inactive),> 100 µM (inactive),17.6 µM (inactive),> 100 µM (inactive),> 100 µM (inactive),> 100 µM (inactive),> 100 µM (inactive),> 100 µM (inactive),> 100 µM (inactive),> 100 µM (inactive),–
CCOC(=O)C[n+]1cccc(C2(c3cc4ccccc4[nH]3)OCCO2)c1,> 100 µM (inactive),> 100 µM (inactive),> 100,> 100 µM (inactive),> 100 µM (inactive),> 100 µM (inactive),> 100 µM (inactive),> 100 µM (inactive),> 100 µM (inactive),> 100 µM (inactive),> 100 µM (inactive),> 100 µM (inactive),> 100 µM (inactive),> 100 µM (inactive),> 100 µM (inactive),> 100 µM (inactive),> 100 µM (inactive),> 100 µM (inactive),> 100 µM (inactive),–
CC(CO)(CBr)COC(=O)c1cc(Br)c(N)c(Br)c1 (stereo unspecified),> 100 µM (inactive),83.9 µM (inactive),> 100,> 100 µM (inactive),54 µM (inactive),43 µM (inactive),> 100 µM (inactive),> 100 µM (inactive),37.4 µM (inactive),2.67 µM (inactive),50.1 µM (inactive),62.2 µM (inactive),> 100 µM (inactive),48.8 µM (inactive),> 100 µM (inactive),> 100 µM (inactive),> 100 µM (inactive),> 100 µM (inactive),81.3 µM (inactive),–
Cc1cn(C2CC(Br)C(COC(c3ccccc3)(c3ccccc3)c3ccccc3)O2)c(=O)[nH]c1=O (stereo unspecified),4.7 µM (inactive),–,–,10.9 µM (inactive),12.3 µM (inactive),14.7 µM (inactive),–,7.98 µM (inactive),14.5 µM (inactive),6.71 µM (inactive),14.3 µM (inactive),15.3 µM (inactive),5.73 µM (inactive),14.5 µM (inactive),13.7 µM (inactive),11.9 µM (inactive),13 µM (inactive),14.6 µM (inactive),15.1 µM (inactive),7.24 µM (inactive)
COC(=O)/C=C(\S/C(=C(/c1ccccc1)n1cc(C(=O)OC)c(C(=O)OC)n1)c1ccccc1)C(=O)OC,1.95 µM (inactive),> 100 µM (inactive),11.6,2 µM (inactive),23.2 µM (inactive),2.86 µM (inactive),–,3.54 µM (inactive),18.2 µM (inactive),2.24 µM (inactive),4.79 µM (inactive),> 100 µM (inactive),16.4 µM (inactive),14.7 µM (inactive),28.4 µM (inactive),8.17 µM (inactive),13 µM (inactive),14.9 µM (inactive),2.48 µM (inactive),–
Cc1c(-c2nc(N)c(C#N)c(N)c2C#N)c(=O)oc2ccccc12,23.6 µM (inactive),> 100 µM (inactive),80.7,> 100 µM (inactive),55.3 µM (inactive),> 100 µM (inactive),> 100 µM (inactive),59.4 µM (inactive),68.1 µM (inactive),> 100 µM (inactive),73.8 µM (inactive),> 100 µM (inactive),34.5 µM (inactive),> 100 µM (inactive),> 100 µM (inactive),60.3 µM (inactive),> 100 µM (inactive),> 100 µM (inactive),> 100 µM (inactive),–
Cn1c(=O)c2[nH]c(-n3nc(-c4ccccc4)cc3N)nc2n(C)c1=O,12.6 µM (inactive),4.04 µM (inactive),0.8,4.85 µM (inactive),6.78 µM (inactive),12.4 µM (inactive),8.67 µM (inactive),6.46 µM (inactive),5.42 µM (inactive),6.89 µM (inactive),6.18 µM (inactive),11.1 µM (inactive),19.7 µM (inactive),7.93 µM (inactive),2.4 µM (inactive),–,2.91 µM (inactive),14.6 µM (inactive),2.12 µM (inactive),–
O=[N+]([O-])c1ccc2nnnn2c1,–,42.6 µM (inactive),8.22,44.1 µM (inactive),23.2 µM (inactive),48.3 µM (inactive),–,3.18 µM (inactive),> 100 µM (inactive),7.89 µM (inactive),22.2 µM (inactive),–,> 100 µM (inactive),37.2 µM (inactive),25.5 µM (inactive),5.7 µM (inactive),78.7 µM (inactive),23.3 µM (inactive),17.6 µM (inactive),3.39 µM (inactive)
Cc1n[nH]c(=O)c2c3c([nH]c12)-c1ccccc1C3,> 100 µM (inactive),> 100 µM (inactive),> 100,> 100 µM (inactive),> 100 µM (inactive),63.4 µM (inactive),–,> 100 µM (inactive),> 100 µM (inactive),> 100 µM (inactive),> 100 µM (inactive),> 100 µM (inactive),> 100 µM (inactive),> 100 µM (inactive),> 100 µM (inactive),> 100 µM (inactive),> 100 µM (inactive),> 100 µM (inactive),> 100 µM (inactive),> 100 µM (inactive)
Oc1ccc(CNCc2ccccc2)c2cccnc12,0.156 µM (active),0.542 µM (active),0.0628,0.107 µM (active),0.0384 µM (active),0.282 µM (active),–,0.138 µM (active),0.495 µM (active),0.316 µM (active),0.383 µM (active),0.354 µM (active),0.336 µM (active),0.0452 µM (active),0.959 µM (active),0.0308 µM (active),0.421 µM (active),0.264 µM (active),0.48 µM (active),0.222 µM (active)
